Test results from the supplement of paper PMC10307832.

How the values were obtained:
Assay in all cases: relative viability (nuclei count vs DMSO), 5 days (fraction); higher = more cells survive
BEN = tested on: BEN
Procedure, shortened: (§1)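 Nuclei were stained with Hoechst during a one-step fixation (final 0.05% Triton X-100, 1% formaldehyde, 1 ug/ml Hoechst) carried out 5 days after dosing, then counted on 4× images. The cells, lung cancer lines in 1536-well plates, had been dosed by pin tool the day after seeding with one drug alone or a fixed anchor-drug dose plus five library-drug doses (not always all listed) in √10 steps. Relative viability is the nuclei count in treated wells divided by that in vehicle wells, and each value is the median of duplicate plates.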

EKVX = tested on: EKVX
Procedure, shortened: as §1

HARA = tested on: HARA
Procedure, shortened: as §1

HCC-366 = tested on: HCC-366
Procedure, shortened: as §1

HCC-827 = tested on: HCC-827
Procedure, shortened: as §1

LOU-NH91 = tested on: LOU-NH91
Procedure, shortened: as §1

NCI-H1355 = tested on: NCI-H1355
Procedure, shortened: as §1

NCI-H1437 = tested on: NCI-H1437
Procedure, shortened: as §1

NCI-H1734 = tested on: NCI-H1734
Procedure, shortened: as §1

NCI-H1792 = tested on: NCI-H1792
Procedure, shortened: as §1

NCI-H1993 = tested on: NCI-H1993
Procedure, shortened: as §1

NCI-H2009 = tested on: NCI-H2009
Procedure, shortened: as §1

NCI-H2087 = tested on: NCI-H2087
Procedure, shortened: as §1

NCI-H2405 = tested on: NCI-H2405
Procedure, shortened: as §1

NCI-H647 = tested on: NCI-H647
Procedure, shortened: as §1

NCI-H661 = tested on: NCI-H661
Procedure, shortened: as §1

SK-LU-1 = tested on: SK-LU-1
Procedure, shortened: as §1

## O=c1cc(N2CCOCC2)oc2c(-c3cccc4c3sc3ccccc34)cccc12 + CC(C)C[C@H](NC(=O)[C@H](Cc1ccccc1)NC(=O)c1cnccn1)B(O)O [Bortezomib] (partner 0.002 µM)
BEN; first compound 0.01 µM
  relative viability: 0.867
BEN; first compound 0.03162 µM
  relative viability: 0.949
BEN; first compound 0.1 µM
  relative viability: 0.673
BEN; first compound 0.3162 µM
  relative viability: 0.793
BEN; first compound 1 µM
  relative viability: 0.712
EKVX; first compound 0.01 µM
  relative viability: 1.03
EKVX; first compound 0.03162 µM
  relative viability: 1.09
EKVX; first compound 0.1 µM
  relative viability: 1.02
EKVX; first compound 0.3162 µM
  relative viability: 1.11
EKVX; first compound 1 µM
  relative viability: 1.05
HARA; first compound 0.01 µM
  relative viability: 1.16
HARA; first compound 0.03162 µM
  relative viability: 1.17
HARA; first compound 0.1 µM
  relative viability: 1.19
HARA; first compound 0.3162 µM
  relative viability: 1.1
HARA; first compound 1 µM
  relative viability: 1.1
HCC-366; first compound 0.01 µM
  relative viability: 1.09
HCC-366; first compound 0.03162 µM
  relative viability: 1.09
HCC-366; first compound 0.1 µM
  relative viability: 1.03
HCC-366; first compound 0.3162 µM
  relative viability: 1.06
HCC-366; first compound 1 µM
  relative viability: 1.04
HCC-827; first compound 0.01 µM
  relative viability: 1.02
HCC-827; first compound 0.03162 µM
  relative viability: 0.976
HCC-827; first compound 0.1 µM
  relative viability: 1.04
HCC-827; first compound 0.3162 µM
  relative viability: 1.06
HCC-827; first compound 1 µM
  relative viability: 1.02
LOU-NH91; first compound 0.01 µM
  relative viability: 0.448
LOU-NH91; first compound 0.03162 µM
  relative viability: 0.487
LOU-NH91; first compound 0.1 µM
  relative viability: 0.538
LOU-NH91; first compound 0.3162 µM
  relative viability: 0.548
LOU-NH91; first compound 1 µM
  relative viability: 0.457
NCI-H1355; first compound 0.01 µM
  relative viability: 1.26
NCI-H1355; first compound 0.03162 µM
  relative viability: 1.15
NCI-H1355; first compound 0.3162 µM
  relative viability: 1.19
NCI-H1355; first compound 1 µM
  relative viability: 1.25
NCI-H1437; first compound 0.01 µM
  relative viability: 0.493
NCI-H1437; first compound 0.03162 µM
  relative viability: 0.515
NCI-H1437; first compound 0.1 µM
  relative viability: 0.477
NCI-H1437; first compound 0.3162 µM
  relative viability: 0.527
NCI-H1437; first compound 1 µM
  relative viability: 0.57
NCI-H1734; first compound 0.01 µM
  relative viability: 0.92
NCI-H1734; first compound 0.03162 µM
  relative viability: 0.808
NCI-H1734; first compound 0.1 µM
  relative viability: 1.01
NCI-H1734; first compound 0.3162 µM
  relative viability: 0.938
NCI-H1734; first compound 1 µM
  relative viability: 0.899
NCI-H1792; first compound 0.01 µM
  relative viability: 0.965
NCI-H1792; first compound 0.03162 µM
  relative viability: 0.912
NCI-H1792; first compound 0.1 µM
  relative viability: 0.965
NCI-H1792; first compound 0.3162 µM
  relative viability: 0.938
NCI-H1792; first compound 1 µM
  relative viability: 0.955
NCI-H1993; first compound 0.01 µM
  relative viability: 1
NCI-H1993; first compound 0.03162 µM
  relative viability: 1.09
NCI-H1993; first compound 0.1 µM
  relative viability: 1.33
NCI-H1993; first compound 0.3162 µM
  relative viability: 1.11
NCI-H1993; first compound 1 µM
  relative viability: 1.07
NCI-H2009; first compound 0.01 µM
  relative viability: 1.03
NCI-H2009; first compound 0.03162 µM
  relative viability: 1.01
NCI-H2009; first compound 0.1 µM
  relative viability: 0.89
NCI-H2009; first compound 0.3162 µM
  relative viability: 0.967
NCI-H2009; first compound 1 µM
  relative viability: 1.01
NCI-H2087; first compound 0.01 µM
  relative viability: 0.777
NCI-H2087; first compound 0.03162 µM
  relative viability: 0.766
NCI-H2087; first compound 0.1 µM
  relative viability: 0.855
NCI-H2087; first compound 0.3162 µM
  relative viability: 0.953
NCI-H2087; first compound 1 µM
  relative viability: 1.06
NCI-H2405; first compound 0.01 µM
  relative viability: 1.01
NCI-H2405; first compound 0.03162 µM
  relative viability: 0.941
NCI-H2405; first compound 0.1 µM
  relative viability: 1.03
NCI-H2405; first compound 0.3162 µM
  relative viability: 0.987
NCI-H2405; first compound 1 µM
  relative viability: 0.988
NCI-H647; first compound 0.01 µM
  relative viability: 1.01
NCI-H647; first compound 0.03162 µM
  relative viability: 1.1
NCI-H647; first compound 0.1 µM
  relative viability: 0.98
NCI-H647; first compound 0.3162 µM
  relative viability: 1.02
NCI-H647; first compound 1 µM
  relative viability: 0.924
NCI-H661; first compound 0.01 µM
  relative viability: 0.681
NCI-H661; first compound 0.03162 µM
  relative viability: 0.89
NCI-H661; first compound 0.1 µM
  relative viability: 0.752
NCI-H661; first compound 0.3162 µM
  relative viability: 0.714
NCI-H661; first compound 1 µM
  relative viability: 0.756
SK-LU-1; first compound 0.01 µM
  relative viability: 1.15
SK-LU-1; first compound 0.03162 µM
  relative viability: 1.36
SK-LU-1; first compound 0.3162 µM
  relative viability: 1.5
SK-LU-1; first compound 1 µM
  relative viability: 1.17

## CCN(CC)CCCCNc1ncc2cc(-c3cc(OC)cc(OC)c3)c(NC(=O)NC(C)(C)C)nc2n1 + CC(C)C[C@H](NC(=O)[C@H](Cc1ccccc1)NC(=O)c1cnccn1)B(O)O [Bortezomib] (partner 0.002 µM)
BEN; first compound 0.01 µM
  relative viability: 0.819
BEN; first compound 0.03162 µM
  relative viability: 0.528
BEN; first compound 0.1 µM
  relative viability: 1.03
BEN; first compound 0.3162 µM
  relative viability: 0.766
BEN; first compound 1 µM
  relative viability: 0.715
EKVX; first compound 0.01 µM
  relative viability: 1.15
EKVX; first compound 0.03162 µM
  relative viability: 0.957
EKVX; first compound 0.1 µM
  relative viability: 1.2
EKVX; first compound 0.3162 µM
  relative viability: 1.21
EKVX; first compound 1 µM
  relative viability: 1.1
HARA; first compound 0.01 µM
  relative viability: 1.19
HARA; first compound 0.03162 µM
  relative viability: 1.12
HARA; first compound 0.1 µM
  relative viability: 1.26
HARA; first compound 0.3162 µM
  relative viability: 1.04
HARA; first compound 1 µM
  relative viability: 0.882
HCC-366; first compound 0.01 µM
  relative viability: 1.09
HCC-366; first compound 0.03162 µM
  relative viability: 1.06
HCC-366; first compound 0.1 µM
  relative viability: 1.48
HCC-366; first compound 0.3162 µM
  relative viability: 1.29
HCC-366; first compound 1 µM
  relative viability: 0.968
HCC-827; first compound 0.01 µM
  relative viability: 1.07
HCC-827; first compound 0.03162 µM
  relative viability: 1
HCC-827; first compound 0.1 µM
  relative viability: 1.09
HCC-827; first compound 0.3162 µM
  relative viability: 1.04
HCC-827; first compound 1 µM
  relative viability: 1.05
LOU-NH91; first compound 0.01 µM
  relative viability: 0.531
LOU-NH91; first compound 0.03162 µM
  relative viability: 0.49
LOU-NH91; first compound 0.1 µM
  relative viability: 0.498
LOU-NH91; first compound 0.3162 µM
  relative viability: 0.515
LOU-NH91; first compound 1 µM
  relative viability: 0.424
NCI-H1355; first compound 0.01 µM
  relative viability: 1.23
NCI-H1355; first compound 0.03162 µM
  relative viability: 1.25
NCI-H1355; first compound 0.1 µM
  relative viability: 1.29
NCI-H1355; first compound 0.3162 µM
  relative viability: 1.41
NCI-H1355; first compound 1 µM
  relative viability: 1.13
NCI-H1437; first compound 0.01 µM
  relative viability: 0.536
NCI-H1437; first compound 0.03162 µM
  relative viability: 0.533
NCI-H1437; first compound 0.1 µM
  relative viability: 0.593
NCI-H1437; first compound 0.3162 µM
  relative viability: 0.554
NCI-H1437; first compound 1 µM
  relative viability: 0.472
NCI-H1734; first compound 0.01 µM
  relative viability: 0.941
NCI-H1734; first compound 0.03162 µM
  relative viability: 0.901
NCI-H1734; first compound 0.1 µM
  relative viability: 1.11
NCI-H1734; first compound 0.3162 µM
  relative viability: 1.11
NCI-H1734; first compound 1 µM
  relative viability: 0.874
NCI-H1792; first compound 0.01 µM
  relative viability: 1.05
NCI-H1792; first compound 0.03162 µM
  relative viability: 1.05
NCI-H1792; first compound 0.1 µM
  relative viability: 0.924
NCI-H1792; first compound 0.3162 µM
  relative viability: 1.38
NCI-H1792; first compound 1 µM
  relative viability: 0.689
NCI-H1993; first compound 0.01 µM
  relative viability: 1
NCI-H1993; first compound 0.03162 µM
  relative viability: 0.981
NCI-H1993; first compound 0.1 µM
  relative viability: 1.26
NCI-H1993; first compound 0.3162 µM
  relative viability: 1.41
NCI-H1993; first compound 1 µM
  relative viability: 1.11
NCI-H2009; first compound 0.01 µM
  relative viability: 0.958
NCI-H2009; first compound 0.03162 µM
  relative viability: 1.06
NCI-H2009; first compound 0.1 µM
  relative viability: 1.1
NCI-H2009; first compound 0.3162 µM
  relative viability: 1.07
NCI-H2009; first compound 1 µM
  relative viability: 0.966
NCI-H2087; first compound 0.01 µM
  relative viability: 0.85
NCI-H2087; first compound 0.03162 µM
  relative viability: 0.909
NCI-H2087; first compound 0.1 µM
  relative viability: 1.08
NCI-H2087; first compound 0.3162 µM
  relative viability: 1.04
NCI-H2087; first compound 1 µM
  relative viability: 0.689
NCI-H2405; first compound 0.01 µM
  relative viability: 0.973
NCI-H2405; first compound 0.03162 µM
  relative viability: 0.866
NCI-H2405; first compound 0.1 µM
  relative viability: 1.05
NCI-H2405; first compound 0.3162 µM
  relative viability: 1.04
NCI-H2405; first compound 1 µM
  relative viability: 0.982
NCI-H647; first compound 0.01 µM
  relative viability: 1.02
NCI-H647; first compound 0.03162 µM
  relative viability: 0.996
NCI-H647; first compound 0.1 µM
  relative viability: 1.6
NCI-H647; first compound 0.3162 µM
  relative viability: 1.08
NCI-H647; first compound 1 µM
  relative viability: 1.07
NCI-H661; first compound 0.01 µM
  relative viability: 0.892
NCI-H661; first compound 0.03162 µM
  relative viability: 0.811
NCI-H661; first compound 0.1 µM
  relative viability: 0.745
NCI-H661; first compound 0.3162 µM
  relative viability: 0.922
NCI-H661; first compound 1 µM
  relative viability: 0.634
SK-LU-1; first compound 0.01 µM
  relative viability: 1.1
SK-LU-1; first compound 0.03162 µM
  relative viability: 0.911
SK-LU-1; first compound 0.1 µM
  relative viability: 1.27
SK-LU-1; first compound 0.3162 µM
  relative viability: 1.75
SK-LU-1; first compound 1 µM
  relative viability: 1.06
